Experimental data from US5610177A, “Acylated amino acids as endothelin antagonists” (Warner-Lambert Company, priority 1994, dated 1997).
Like-named read-outs stand apart in the source and are kept apart here. Where no end group is shown, it is not given here.

Legend:
endothelin ETA receptor [1] = details: rats; cited from earlier work
ETA receptor = details: intraperitoneal, rats; cited from earlier work
endothelin ETA receptor [2] = details: intracisternal, canine subarachnoid hemorrhage model; cited from earlier work
ETA and ETB receptors [3] = details: cited from earlier work
ETA and ETB receptors [4] = details: rats, cited from earlier work
ETA and ETB receptors [5] = details: rats, cited from earlier work; remark: listed apart in the source
ETA and ETB receptors [6] = details: orally administered; cited from earlier work
ETB receptors [7] = biological target: T1, ETB receptors (Homo sapiens, UniProt P24530); test: HERBA-B, [125I]-ET-1 binding to recombinant human ETB receptor expressed in CHO-K1 cell membranes; design: expressed in transfected cells; host or cells: CHO-K1 cells (membranes)
T1 sequence (P24530 27-442): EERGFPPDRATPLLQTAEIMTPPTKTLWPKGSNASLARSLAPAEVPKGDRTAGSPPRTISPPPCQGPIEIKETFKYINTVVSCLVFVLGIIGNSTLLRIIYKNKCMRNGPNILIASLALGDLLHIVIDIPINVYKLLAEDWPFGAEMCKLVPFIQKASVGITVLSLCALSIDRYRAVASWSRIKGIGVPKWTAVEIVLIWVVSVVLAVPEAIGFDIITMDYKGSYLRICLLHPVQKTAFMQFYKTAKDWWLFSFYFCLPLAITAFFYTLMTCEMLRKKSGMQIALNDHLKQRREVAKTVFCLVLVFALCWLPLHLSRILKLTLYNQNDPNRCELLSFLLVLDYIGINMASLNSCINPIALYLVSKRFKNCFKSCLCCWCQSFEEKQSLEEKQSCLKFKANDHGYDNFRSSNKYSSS
Procedure: The compounds of Formula I are valuable antagonists of endothelin. […] The above process has also been modified by using human recombinant CHO-K1 cells. […] The gene for human ETB receptor was cloned and inserted into the pRc-CMW expression vector, then transfected into CHO-K1 cells by electroporation. For binding assays, membranes (0.7 mg protein) of CHO-K1 cells expressing recombinant human ETB receptor were used.

[8] = biological target: T2, endothelin receptor of rabbit renal artery vascular smooth muscle cells (Oryctolagus cuniculus, UniProt A5A8K3); type: binding; details: [125I]-ET-1 25 pM, 37° C., 2 hours, read-out: IC50 ERBA-A
T2 sequence (A5A8K3 21-427): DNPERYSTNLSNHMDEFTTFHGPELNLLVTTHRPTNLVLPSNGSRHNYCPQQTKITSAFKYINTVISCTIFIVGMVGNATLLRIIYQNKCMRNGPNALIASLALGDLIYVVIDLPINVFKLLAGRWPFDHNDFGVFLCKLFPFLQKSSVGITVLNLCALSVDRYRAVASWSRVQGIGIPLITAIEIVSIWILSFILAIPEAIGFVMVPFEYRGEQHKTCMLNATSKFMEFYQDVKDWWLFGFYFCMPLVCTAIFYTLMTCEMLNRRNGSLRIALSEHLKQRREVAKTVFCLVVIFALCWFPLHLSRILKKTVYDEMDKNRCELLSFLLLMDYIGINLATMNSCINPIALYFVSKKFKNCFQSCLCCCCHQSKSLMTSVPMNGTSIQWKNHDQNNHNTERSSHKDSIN
From the text: The compounds of Formula I are valuable antagonists of endothelin.

ETB receptors [9] = biological target: T1, ETB receptors; test: AAR-B, inhibition of ET-3 stimulated arachidonic acid release in CHO cells expressing recombinant ETB receptors; type: cell-based; design: expressed in transfected cells; host or cells: Chinese hamster ovary (CHO) cells; details: ET-3 (1.0 nM) stimulated [3H]arachidonic acid release, read-out: IC50 AAR-B (Antagonist)
[10] = biological target: T3, endothelin receptor of rat cerebellar membranes (Rattus norvegicus, UniProt P21451); test: Endothelin receptor binding assay-B (ERBA-B), [125I]-ET-1 binding in rat cerebellar membranes; details: [125I]-ET-1 25 pM, 37° C., 2 hours
T3 sequence (P21451 27-442): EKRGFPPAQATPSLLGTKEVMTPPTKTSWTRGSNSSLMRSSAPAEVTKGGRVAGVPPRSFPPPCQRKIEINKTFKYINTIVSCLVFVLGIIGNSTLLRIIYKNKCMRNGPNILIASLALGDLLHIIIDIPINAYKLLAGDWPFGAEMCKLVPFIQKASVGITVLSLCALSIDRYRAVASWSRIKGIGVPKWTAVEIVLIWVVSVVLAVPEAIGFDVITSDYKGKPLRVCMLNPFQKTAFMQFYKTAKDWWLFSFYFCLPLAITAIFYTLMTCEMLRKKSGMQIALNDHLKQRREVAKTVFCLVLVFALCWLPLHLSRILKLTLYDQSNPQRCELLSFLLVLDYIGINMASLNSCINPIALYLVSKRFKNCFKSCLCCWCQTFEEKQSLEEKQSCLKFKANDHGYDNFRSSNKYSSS
From the text: The compounds of Formula I are valuable antagonists of endothelin. […] ENDOTHELIN RECEPTOR BINDING […]-1 BINDING IN RAT CEREBELLAR MEMBRANES […] Count filters for radioactivity in gamma counter.

endothelin receptor = details: cited from earlier work
ETB = details: isolated, endothelium-intact porcine pulmonary arteries; cited from earlier work
[11] = intracerebroventricular, rats; cited from earlier work
ETA = details: cited from earlier work

| Molecule | IC50 (ETB receptors [7]) [µM] | IC50 [8] [µM] | also measured |
| --- | --- | --- | --- |
| FR 139317 |  |  | ET-1 induced arrhythmia (endothelin ETA receptor [1]): suppressed; permeability to proteins, glomerular injury and renal function (ETA receptor): reduced abnormal permeability to proteins and limited glomerular injury and prevented renal function deterioration; vasoconstriction of the basilar artery (endothelin ETA receptor [2]): significantly reduced the vasoconstriction of the basilar artery; ETA/ETB receptor antagonism and selectivity (ETA and ETB receptors [3]): potent endothelin ETA receptor antagonist |
| COc1cccc(Oc2c(NS(=O)(=O)c3ccc(C(C)(C)C)cc3)ncnc2OCCO)c1 [Ro 46-2005] |  |  | effect in subarachnoid hemorrhage (ETA and ETB receptors [4]): dramatically reduced cerebral vasoconstriction after subarachnoid hemorrhage; effect in subarachnoid hemorrhage (ETA and ETB receptors [4]; listed as RO 46-2005): effective in models of acute renal ischemia and subarachnoid hemorrhage in rats; effect in renal ischemia (ETA and ETB receptors [5]): protective effect for renal vasoconstriction after renal ischemia; effect in renal ischemia (ETA and ETB receptors [5]; listed as RO 46-2005): effective in models of acute renal ischemia; ETA/ETB receptor antagonism and selectivity (ETA and ETB receptors [3]): non-selective ETA /ETB antagonists; antihypertensive effect (ETA and ETB receptors [6]): marked antihypertensive effect with a reasonably long duration |
| C[C@](Cc1c[nH]c2ccccc12)(NC(=O)C(Cc1ccccc1)Cc1ccccc1)C(=O)O [Example 5, Di-benzylacetyl-(α-methyl-D-tryptophan)] | 19 | > 25 |  |
| C[C@](Cc1c[nH]c2ccccc12)(NC(=O)C(Cc1cccc2ccccc12)Cc1cccc2ccccc12)C(=O)O [Example 1, Bis-(1-naphthylmethyl)acetyl-(α-methyl-D-tryptophan)] | 0.57 | 10 | IC50 (ETB receptors [9]): 2.5 µM; IC50 [10]: 0.6 µM |
| C[C@](Cc1c[nH]c2ccccc12)(NCC(Cc1cccc2ccccc12)Cc1cccc2ccccc12)C(=O)O [Example 15, N-[2-bis-(1-naphthylmethyl)ethyl]-(α-methyl-D-tryptophan)] | 9.2 | 14 |  |
| C[C@](Cc1c[nH]c2ccccc12)(NC(=O)C(Cc1c(F)c(F)c(F)c(F)c1F)Cc1c(F)c(F)c(F)c(F)c1F)C(=O)O [Example 7, Bis-(2,3,4,5,6-pentafluorophenylmethyl)acetyl-(α-methyl-D-tryptophan)] | 27 | > 25 |  |
| C[C@](Cc1c[nH]c2ccccc12)(NC(=O)C(CC1CCCCC1)CC1CCCCC1)C(=O)O [Example 16, Bis-(cyclohexylmethyl)acetyl-(α-methyl-D-tryptophan)] | 7.4 | > 25 |  |
| C[C@](Cc1c[nH]c2ccccc12)(NC(=O)C(Cc1cccc2c1CCCC2)Cc1cccc2c1CCCC2)C(=O)O [Example 6, Bis-(5,6,7,8-tetrahydro-1-naphthylmethyl)acetyl-(α-methyl-D-tryptophan)] | 1.4 | 14 |  |
| COc1ccccc1Oc1c(NS(=O)(=O)c2ccc(C(C)(C)C)cc2)nc(-c2ncccn2)nc1OCCO [Ro 47-0203] |  |  | blood brain barrier crossing (endothelin receptor; inferred from rabbit subarachnoid hemorrhage model): crosses the blood brain barrier; reversal of vasoconstriction (endothelin receptor; rabbit subarachnoid hemorrhage model): effective in a rabbit subarachnoid hemorrhage model in reversing vasoconstriction; ETA/ETB receptor antagonism and selectivity (ETA and ETB receptors [3]): non-selective ETA /ETB antagonists |
| Cc1cccc(CC(Cc2cccc(C)c2C)C(=O)N[C@](C)(Cc2c[nH]c3ccccc23)C(=O)O)c1C [Example 4] | 2.9 | > 25 |  |
| CC(Cc1ccccc1)(NC(=O)C(Cc1cccc2ccccc12)Cc1cccc2ccccc12)C(=O)O (racemic) [Example 13, Bis-(1-naphthylmethyl)acetyl-(α-methyl-D, L-phenylalanine)] | 6.5 | 14 |  |
| C[C@@](Cc1c[nH]c2ccccc12)(NC(=O)C(Cc1cccc2ccccc12)Cc1cccc2ccccc12)C(=O)O [Example 8, Bis-(1-naphthylmethyl)acetyl-(α-methyl-L-tryptophan)] |  | > 30 | IC50 [10]: 17 µM |
| N-Acetyl-ET [N-Acetyl-ET [10-21,11,15-Ala]] |  |  | vasorelaxation (ETB): caused vasorelaxation |
| Cc1cccc(CC(Cc2cccc(C)c2)C(=O)N[C@](C)(Cc2c[nH]c3ccccc23)C(=O)O)c1 [Example 11, Bis-(3-methylphenylmethyl)acetyl-(α-methyl-D-tryptophan)] | 4.7 | > 25 | IC50 (ETB receptors [9]): 9.9 µM |
| C[C@](Cc1c[nH]c2ccccc12)(NC(=O)C(Cc1ccc2ccccc2c1)Cc1ccc2ccccc2c1)C(=O)O [Example 3, Bis-(2-naphthylmethyl)acetyl-(α-methyl-D-tryptophan)] | 16 | > 25 |  |
| Endothelin-1 (CSCSSLMDKECVYFCHLDIIW; not fully specified (bridges); cysteine pairing not given here; UniProt P05305 53-73, looked up) [ET-1] |  |  | behavioral effects [11]: evoke several behavioral effects |
| Cc1noc(NS(=O)(=O)c2cccc3c(N(C)C)cccc23)c1C [BMS182874] |  |  | ETA/ETB receptor antagonism and selectivity (ETA and ETB receptors [3]): ETA specific antagonists |
| CC(Cc1cccc2ccccc12)(Cc1cccc2ccccc12)C(=O)N[C@](C)(Cc1c[nH]c2ccccc12)C(=O)O [Example 12, Bis-2-(1-naphthylmethyl)-2-methylacetyl-(α-methyl-D-tryptophan)] | 10 | > 25 |  |
| Cc1ccccc1CC(Cc1ccccc1C)C(=O)N[C@](C)(Cc1c[nH]c2ccccc12)C(=O)O [Example 10, Bis-(2-methylphenylmethyl)acetyl-(α-methyl-D-tryptophan)] | 1.5 | > 25 | IC50 (ETB receptors [9]): 9.5 µM |
| C[C@](Cc1c[nH]c2ccccc12)(NC(=O)C(Cc1ccccc1)Cc1cccc2ccccc12)C(=O)O (stereo partly drawn) [Example 9, 2-(1-Naphthylmethyl)-2-benzylacetyl-(α-methyl-D-tryptophan)] | 2.2 | 26 | IC50 (ETB receptors [9]): 6.6 µM |
| CC(Cc1ccc(O)cc1)(NC(=O)C(Cc1cccc2ccccc12)Cc1cccc2ccccc12)C(=O)O (racemic) [Example 14, Bis-(1-naphthylmethyl)acetyl-(α-methyl-D, L-tyrosine)] | 18 | 25 |  |
| Cc1noc(NS(=O)(=O)c2cccc3c(N(C)C)cccc23)c1C [5-(Dimethylamino)-N-(3,4-dimethyl-5-isoxazolyl)-1-naphthalenesulfonamide] |  |  | oral antihypertensive effect (ETA): oral antihypertensive effect |
| C[C@](Cc1c[nH]c2ccccc12)(NC(=O)C(Cc1ccc2c(c1)OCO2)Cc1ccc2c(c1)OCO2)C(=O)O [Example 2, Bis-(3,4-methylenedioxyphenylmethyl)acetyl-(α-methyl-D-tryptophan)] | 1.6 | > 25 |  |
